IC50 data for 25 compounds are collected here from patent publication US12435066B2, “Substituted tricyclic compounds” (LUPIN LIMITED, priority 2019, dated 2025).

In this assay the test system is pERK in DLD1 cells. In words: ERK phosphorylation assay after EGF stimulation. It is filed as cell-based. The following applies: Homo sapiens, DLD-1, compound 2 h, 200 ng/ml hEGF 5 minutes, alphascreen pERK, read-out: ERK phosphorylation inhibition IC50. The protocol: Example-128: ERK Phosphorylation Assay Protocol
Compounds were tested for their ability to inhibit pERK after EGF stimulation in DLD1 cells. Cells were seeded at 0.2 million cells per well in 96 well cell binding tissue culture plate in 100 μL complete media and were allowed to settle overnight (16 to 20 h). On the following day, cells were treated with various concentrations of test compounds for 2 h followed by stimulation with 200 ng/ml hEGF (diluted in PBS) for 5 minutes. Cells were then washed once with PBS and lysed in freshly prepared lysis buffer (provided with alphascreen surefire ERK1/2 p-T202/Y204 assay kit, cat no: TGRESB10K, Perkin Elmer). Lysis was carried out in plate shaker for 10-15 mins. Lysate was transferred to […] white opti-plate (Perkin Elmer) and alphascreen for pERK was carried out as per manufacturer's instructions. Plate was read after 2 h incubation in plate shaker at […] 300 RPM, 25-28° C.

Take `Cc1nc(N[C@H](C)c2cc(N)cc(C(F)(F)F)c2)c2cc(O[C@H]3CCOC3)c3c(c2n1)CC(C)O3` (mixture of isomers) [Compound 118a, (R/S)—N—((R)-1-(3-amino-5-(trifluoromethyl)phenyl)ethyl)-2,8-dimethyl-6-(((S)-tetrahydrofuran-3-yl)oxy)-8,9-dihydrofuro[2,3-h]quinazolin-4-amine]: the concentration for half-maximal inhibition (IC50) lay in the range of 1 to 200 nM. As to `CC(=O)N1CCC(c2cc3c(N[C@H](C)c4cc(N)cc(C(F)(F)F)c4)nc(C)nc3c3c2CCC3)CC1` [Compound 102, (R)-1-(4-(4-((1-(3-amino-5-(trifluoromethyl)phenyl)ethyl)amino)-2-methyl-8,9-dihydro-7H-cyclopenta[h]quinazolin-6-yl)piperidin-1-yl)ethan-1-one], the IC50 lay in the range of 1 to 200 nM.

On to `Cc1nc(N[C@H](C)c2cccc(C(F)(F)CCO)c2F)c2cc(N3CC4(COC4)C3)c3c(c2n1)CCC3` [Compound 70, (R)-3,3-difluoro-3-(2-fluoro-3-(1-((2-methyl-6-(2-oxa-6-azaspiro[3.3]heptan-6-yl)-8,9-dihydro-7H-cyclopenta[h]quinazolin-4-yl)amino)ethyl)phenyl) propan-1-ol], for which the IC50 fell in the range of 1 to 200 nM.

Turning to `Cc1nc(N[C@H](C)c2cc(N)cc(C(F)(F)F)c2)c2cc(N3CCC4(CCCO4)CC3)c3c(c2n1)CCC3` [Compound 13, (R)—N-(1-(3-amino-5-(trifluoromethyl)phenyl)ethyl)-2-methyl-6-(1-oxa-8-azaspiro[4.5]decan-8-yl)-8,9-dihydro-7H-cyclopenta[h]quinazolin-4-amine], the 50% inhibitory concentration (IC50) lay in the range of 1 to 200 nM. In the case of `Cc1nc(NC(C)c2cccc(C(F)(F)CO)c2C)c2cc(N3CC4(COC4)C3)c3c(c2n1)CCC3` (single isomer, unassigned) [Compound 41, 2,2-difluoro-2-(2-methyl-3-(1-((2-methyl-6-(2-oxa-6-azaspiro[3.3]heptan-6-yl)-8,9-dihydro-7H-cyclopenta[h]quinazolin-4-yl)amino)ethyl)phenyl)ethan-1-ol], the concentration for half-maximal inhibition (IC50) lay within 1 to 200 nM. Under `Cc1nc(N[C@H](C)c2cc(N)cc(C(F)(F)F)c2)c2cc(C3CCOCC3)c3c(c2n1)CCC3` [Compound 104, (R)—N-(1-(3-amino-5-(trifluoromethyl)phenyl)ethyl)-2-methyl-6-(tetrahydro-2H-pyran-4-yl)-8,9-dihydro-7H-cyclopenta[h]quinazolin-4-amine] stands 201 to 500 nM. Under `COC[C@H]1CN(c2cc3c(NC(C)c4cccc(C(F)(F)CO)c4C)nc(C)nc3c3c2CCC3)CCO1` (single isomer, unassigned) [Compound 42] stands 1 to 200 nM. The same measure for `Cc1nc(N[C@H](C)c2cccc(C(F)(F)C(C)(C)O)c2F)c2cc(N3CC[C@](C)(O)C3)c3c(c2n1)CCC3` (single isomer, unassigned) [Compound 61b]: 201 to 500 nM. Turning to `Cc1nc(NC(C)c2cccc(C(C)(C)CO)c2)c2cc(N3CC4(COC4)C3)c3c(c2n1)CCC3` (single isomer, unassigned) [Compound 6, 2-methyl-2-(3-(1-((2-methyl-6-(2-oxa-6-azaspiro[3.3]heptan-6-yl)-8,9-dihydro-7H-cyclopenta[h]quinazolin-4-yl)amino)ethyl)phenyl)propan-1-ol], the IC50 fell in the range of 201 to 500 nM. The same measure for `Cc1nc(NC(C)c2cccc(C(=O)C(F)(F)F)c2)c2cc(N3CCOCC3)c3c(c2n1)CCC3` (racemic) [Compound 120, (R/S)-2,2,2-trifluoro-1-(3-(1-((2-methyl-6-morpholino-8,9-dihydro-7H-cyclopenta[h]quinazolin-4-yl)amino)ethyl)phenyl)ethan-1-one]: 201 to 500 nM; for `Cc1nc(N[C@H](C)c2cc(N)cc(C(F)(F)F)c2)c2cc(C3CCC(=O)CC3)c3c(c2n1)CCC3` [Compound 124, (R)-4-(4-((1-(3-amino-5-(trifluoromethyl)phenyl)ethyl)amino)-2-methyl-8,9-dihydro-7H-cyclopenta[h]quinazolin-6-yl)cyclohexan-1-one]: 201 to 500 nM. Under `Cc1nc(NC(C)c2cc(N)cc(C(F)F)c2)c2cc(N3CC4(COC4)C3)c3c(c2n1)CC(C)(C)O3` (racemic) [Compound 116, (R/S)—N-(1-(3-amino-5-(difluoromethyl)phenyl)ethyl)-2,8,8-trimethyl-6-(2-oxa-6-azaspiro[3.3]heptan-6-yl)-8,9-dihydrofuro[2,3-h]quinazolin-4-amine] stands 1 to 200 nM; under `Cc1nc(N[C@H](C)c2cccc(C(F)(F)CO)c2F)c2cc(N3CC[C@](C)(O)C3)c3c(c2n1)CCC3` (single isomer, unassigned) [Compound 67a], 1 to 200 nM; under `CC(=O)N1CC=C(c2cc3c(N[C@H](C)c4cc(N)cc(C(F)(F)F)c4)nc(C)nc3c3c2CCC3)CC1` [Compound 90, (R)-1-(4-(4-((1-(3-amino-5-(trifluoromethyl)phenyl)ethyl)amino)-2-methyl-8,9-dihydro-7H-cyclopenta[h]quinazolin-6-yl)-3,6-dihydropyridin-1(2H)-yl)ethan-1-one], 1 to 200 nM. Under `Cc1nc(N[C@H](C)c2cccc(C(F)(F)C(C)(C)O)c2F)c2cc(N3CCNC(=O)C3)c3c(c2n1)CCC3` [Compound 66, (R)-4-(4-((1-(3-(1,1-difluoro-2-hydroxy-2-methylpropyl)-2-fluorophenyl)ethyl)amino)-2-methyl-8,9-dihydro-7H-cyclopenta[h]quinazolin-6-yl)piperazin-2-one] stands 1 to 200 nM; under `Cc1nc(NC(C)c2cccc(C(F)(F)F)c2F)c2cc(N3CC4(COC4)C3)c3c(c2n1)CCC3` (single isomer, unassigned) [Compound 34, N-(1-(2-fluoro-3-(trifluoromethyl)phenyl)ethyl)-2-methyl-6-(2-oxa-6-azaspiro[3.3]heptan-6-yl)-8,9-dihydro-7H-cyclopenta[h]quinazolin-4-amine], 1 to 200 nM; under `Cc1nc(N[C@H](C)c2cccc(C(F)(F)C(C)(C)O)c2F)c2cc(-c3ccc(=O)n(C)c3)c3c(c2n1)N(C)C(=O)C(C)(C)O3` [Compound 122, (R)-4-((1-(3-(1,1-difluoro-2-hydroxy-2-methylpropyl)-2-fluorophenyl)ethyl)amino)-2,8,8,10-tetramethyl-6-(1-methyl-6-oxo-1,6-dihydropyridin-3-yl)-8H-[1,4]oxazino[2,3-h]quinazolin-9(10H)-one], 201 to 500 nM.

As to `Cc1nc(N[C@H](C)c2cccc(C(F)(F)C(C)(C)O)c2F)c2cc(N3CCOCC3=O)c3c(c2n1)CCC3` [Compound 123, (R)-4-(4-((1-(3-(1,1-difluoro-2-hydroxy-2-methylpropyl)-2-fluorophenyl)ethyl)amino)-2-methyl-8,9-dihydro-7H-cyclopenta[h]quinazolin-6-yl)morpholin-3-one], the half-inhibitory concentration (IC50) is 201 to 500 nM. `Cc1nc(N[C@H](C)c2cc(N)cc(C(F)(F)F)c2)c2cc(C3CCN(C(=O)C4CC4)CC3)c3c(c2n1)CCC3` [Compound 100, (R)-(4-(4-((1-(3-amino-5-(trifluoromethyl)phenyl)ethyl)amino)-2-methyl-8,9-dihydro-7H-cyclopenta[h]quinazolin-6-yl)piperidin-1-yl)(cyclopropyl)methanone]: the IC50 fell in the range of 201 to 500 nM. Regarding `Cc1nc(N[C@H](C)c2cc(N)cc(C(F)(F)F)c2)c2cc(C3CCC(O)CC3)c3c(c2n1)CCC3` (stereo partly drawn) [Compound 125, (R)-4-(4-((1-(3-amino-5-(trifluoromethyl)phenyl)ethyl)amino)-2-methyl-8,9-dihydro-7H-cyclopenta[h]quinazolin-6-yl)cyclohexan-1-ol], the 50% inhibitory concentration (IC50) lay within 1 to 200 nM. For the compound `COCC1CN(c2cc3c(N[C@H](C)c4cccc(C(F)(F)CO)c4F)nc(C)nc3c3c2CCC3)C1` [Compound 9, (R)-2,2-difluoro-2-(2-fluoro-3-(1-((6-(3-(methoxymethyl)azetidin-1-yl)-2-methyl-8,9-dihydro-7H-cyclopenta[h]quinazolin-4-yl)amino)ethyl)phenyl)ethan-1-ol], the 50% inhibitory concentration (IC50) was in the range of 201 to 500 nM.

For the compound `Cc1nc(N[C@H](C)c2cccc(C(F)(F)CO)c2F)c2cc(N3CCO[C@@H](CO)C3)c3c(c2n1)CCC3` [Compound 86, 2,2-difluoro-2-(2-fluoro-3-((R)-1-((6-((R)-2-(hydroxymethyl)morpholino)-2-methyl-8,9-dihydro-7H-cyclopenta[h]quinazolin-4-yl)amino)ethyl)phenyl)ethan-1-ol], the 50% inhibitory concentration (IC50) fell in the range of 1 to 200 nM. Under `CC(=O)N1CCC(c2cc3c(N[C@H](C)c4cc(N)cc(C(F)(F)F)c4)nc(C)nc3c3c2CCCC3)CC1` [Compound 105, (R)-1-(4-(4-((1-(3-amino-5-(trifluoromethyl)phenyl)ethyl)amino)-2-methyl-7,8,9,10-tetrahydrobenzo[h]quinazolin-6-yl)piperidin-1-yl)ethan-1-one] stands 1 to 200 nM; under `Cc1cc(N)cc(C(C)Nc2nc(C)nc3c4c(c(N5CCOCC5)cc23)CCC4)c1` (single isomer, unassigned) [Compound 80, N-(1-(3-amino-5-methylphenyl)ethyl)-2-methyl-6-morpholino-8,9-dihydro-7H-cyclopenta[h]quinazolin-4-amine], 201 to 500 nM. Under `COC[C@@H]1CN(c2cc3c(N[C@H](C)c4cc(N)cc(C(F)(F)F)c4)nc(C)nc3c3c2CCC3)CCO1` [Compound 32, N—((R)-1-(3-amino-5-(trifluoromethyl)phenyl)ethyl)-6-((S)-2-(methoxymethyl)morpholino)-2-methyl-8,9-dihydro-7H-cyclopenta[h]quinazolin-4-amine] stands 201 to 500 nM.
